Source: the supplement of paper PMC4932681

Tests used:
BT-474 Tam1 [1] = experiment: drug sensitivity score (DSS) (DSS (dimensionless)); higher = more sensitive; extreme values may be limits of the assay; details: 4-OH-tamoxifen in medium 1 µM; 72 h
Procedure, shortened: (§1)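 Breast cancer cell lines and their resistant derivatives were seeded into 384-well plates containing library drugs at five concentrations across a 10 000-fold range, with resistant lines kept in medium with 1 μM of the selecting drug. After 72 h at 37 °C, CellTiter-Glo viability was read on a PHERAstar and normalised to vehicle-only and positive controls. Logistic dose–response fits in the Breeze pipeline gave drug sensitivity score, relative IC50 (curve midpoint) and top-dose inhibition.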

BT-474 Tam2 [2] = experiment: as above; details: 4-OH-tamoxifen in medium 1 µM; 72 h
Procedure, shortened: as §1

BT-474 [3] = experiment: as above; details: 72 h
Procedure, shortened: as §1

MCF-7 Tam1 [4] = experiment: as above; details: 4-OH-tamoxifen in medium 1 µM; 72 h
Procedure, shortened: as §1

MCF-7 [5] = experiment: as above; details: 72 h
Procedure, shortened: as §1

T-47D Tam1 [6] = experiment: as above; details: 4-OH-tamoxifen in medium 1 µM; 72 h
Procedure, shortened: as §1

T-47D Tam2 [7] = experiment: as above; details: 4-OH-tamoxifen in medium 1 µM; 72 h
Procedure, shortened: as §1

T-47D [8] = experiment: as above; details: 72 h
Procedure, shortened: as §1

ZR-75-1 Tam1 [9] = experiment: as above; details: 4-OH-tamoxifen in medium 1 µM; 72 h
Procedure, shortened: as §1

ZR-75-1 Tam2 [10] = experiment: as above; details: 4-OH-tamoxifen in medium 1 µM; 72 h
Procedure, shortened: as §1

ZR-75-1 [11] = experiment: as above; details: 72 h
Procedure, shortened: as §1

BT-474 Tam1 [12] = experiment: relative IC50 (midpoint of fitted logistic curve, plateau may be below 50% inhibition; CellTiter-Glo viability); higher = less potent; details: 4-OH-tamoxifen in medium 1 µM; 72 h
Procedure, shortened: as §1

BT-474 Tam2 [13] = experiment: as above; details: 4-OH-tamoxifen in medium 1 µM; 72 h
Procedure, shortened: as §1

BT-474 [14] = experiment: as above; details: 72 h
Procedure, shortened: as §1

MCF-7 Tam1 [15] = experiment: as above; details: 4-OH-tamoxifen in medium 1 µM; 72 h
Procedure, shortened: as §1

MCF-7 [16] = experiment: as above; details: 72 h
Procedure, shortened: as §1

T-47D Tam2 [17] = experiment: as above; details: 4-OH-tamoxifen in medium 1 µM; 72 h
Procedure, shortened: as §1

T-47D [18] = experiment: as above; details: 72 h
Procedure, shortened: as §1

ZR-75-1 Tam1 [19] = experiment: as above; details: 4-OH-tamoxifen in medium 1 µM; 72 h
Procedure, shortened: as §1

ZR-75-1 Tam2 [20] = experiment: as above; details: 4-OH-tamoxifen in medium 1 µM; 72 h
Procedure, shortened: as §1

ZR-75-1 [21] = experiment: as above; details: 72 h
Procedure, shortened: as §1

T-47D Tam1 [22] = experiment: as above; details: 4-OH-tamoxifen in medium 1 µM; 72 h
Procedure, shortened: as §1

Row | SMILES | drug sensitivity score (BT-474 Tam1 [1]) | drug sensitivity score (BT-474 Tam2 [2]) | drug sensitivity score (BT-474 [3]; 4-OH-tamoxifen in medium 0 µM) | drug sensitivity score (BT-474 [3]; 4-OH-tamoxifen in medium 1 µM) | drug sensitivity score (MCF-7 Tam1 [4]) | drug sensitivity score (MCF-7 [5]; 4-OH-tamoxifen in medium 0 µM) | drug sensitivity score (MCF-7 [5]; 4-OH-tamoxifen in medium 1 µM) | drug sensitivity score (T-47D Tam1 [6]) | drug sensitivity score (T-47D Tam2 [7]) | drug sensitivity score (T-47D [8]; 4-OH-tamoxifen in medium 0 µM) | drug sensitivity score (T-47D [8]; 4-OH-tamoxifen in medium 1 µM) | drug sensitivity score (ZR-75-1 Tam1 [9]) | drug sensitivity score (ZR-75-1 Tam2 [10]) | drug sensitivity score (ZR-75-1 [11]; 4-OH-tamoxifen in medium 0 µM) | drug sensitivity score (ZR-75-1 [11]; 4-OH-tamoxifen in medium 1 µM) | relative IC50 (BT-474 Tam1 [12]) | relative IC50 (BT-474 Tam2 [13]) | relative IC50 (BT-474 [14]; 4-OH-tamoxifen in medium 0 µM) | relative IC50 (BT-474 [14]; 4-OH-tamoxifen in medium 1 µM) | relative IC50 (MCF-7 Tam1 [15]) | relative IC50 (MCF-7 [16]; 4-OH-tamoxifen in medium 0 µM) | relative IC50 (T-47D Tam2 [17]) | relative IC50 (T-47D [18]; 4-OH-tamoxifen in medium 0 µM) | relative IC50 (T-47D [18]; 4-OH-tamoxifen in medium 1 µM) | relative IC50 (ZR-75-1 Tam1 [19]) | relative IC50 (ZR-75-1 Tam2 [20]) | relative IC50 (ZR-75-1 [21]; 4-OH-tamoxifen in medium 0 µM) | relative IC50 (ZR-75-1 [21]; 4-OH-tamoxifen in medium 1 µM) | relative IC50 (MCF-7 [16]; 4-OH-tamoxifen in medium 1 µM) | relative IC50 (T-47D Tam1 [22])
1 | C[C@]12CC[C@@H]3c4ccc(O)cc4C[C@@H](CCCCCCCCC[S+]([O-])CCCC(F)(F)C(F)(F)F)[C@H]3[C@@H]1CC[C@@H]2O (stereo not given in full) [Fulvestrant] | 0 | 0 | 0 | 0 | 0 | 7.84 | 0.235 | 0.0366 | 0 | 0 | 5.21 | 0 | 0 | 0 | 0 | > 1000 nM | > 1000 nM | > 1000 nM | > 1000 nM | > 1000 nM | 6.43 nM | > 1000 nM | > 1000 nM | 45 nM | > 1000 nM | > 1000 nM | > 1000 nM | > 1000 nM |  | 
2 | COc1cc(Nc2ncc(F)c(Nc3ccc4c(n3)NC(=O)C(C)(C)O4)n2)cc(OC)c1OC [Tamatinib (R406)] | 0 | 0 | 0 | 0 | 0 | 0 | 0 | 0.592 | 0 | 0 | 0 | 0 | 0 | 0 | 0 | > 10000 nM | > 10000 nM | > 10000 nM | > 10000 nM | > 10000 nM | > 10000 nM | > 10000 nM | > 10000 nM | > 10000 nM | > 10000 nM | > 10000 nM | > 10000 nM | > 10000 nM | > 10000 nM | 
3 | CC(=O)O[C@@]12CO[C@@H]1C[C@H](O)[C@@]1(C)C(=O)[C@H](O)C3=C(C)[C@@H](OC(=O)[C@H](O)[C@@H](NC(=O)OC(C)(C)C)c4ccccc4)C[C@@](O)([C@@H](OC(=O)c4ccccc4)[C@H]21)C3(C)C [Docetaxel] | 10 | 3.99 | 14 | 17.7 | 0 | 7.56 | 5.79 | 8.38 | 10.8 | 15.4 | 0 | 0 | 0 | 0.389 | 0 | 6.72 nM |  | 3.76 nM | 3.83 nM | > 1000 nM | 1.23 nM | 4.21 nM | 1.76 nM | > 1000 nM | > 1000 nM | > 1000 nM |  | > 1000 nM |  | 
4 | Cc1cc(Nc2nc(N[C@@H](C)c3ncc(F)cn3)ncc2Cl)[nH]n1 [AZD1480] | 0 | 0 | 0 | 0 | 0 | 0.0046 | 0 | 2.6 | 0 | 0 | 0 | 0 | 0 | 0 | 0 | > 1000 nM | > 1000 nM | > 1000 nM | > 1000 nM | > 1000 nM |  | > 1000 nM | > 1000 nM | > 1000 nM | > 1000 nM | > 1000 nM | > 1000 nM | > 1000 nM | > 1000 nM | 
5 | COc1ccccc1S(=O)(=O)Nc1ccc2c(c1)CN(C)C(=O)N2 [PFI-1] | 0.704 | 2.35 | 2.69 | 0.561 | 0 | 2.8 | 2.92 | 4.01 | 1.76 | 0.887 | 0.0577 | 1.48 | 1.77 | 0.0459 | 1.01 |  | 1620 nM | 1100 nM |  | > 10000 nM | 2530 nM | 2710 nM |  |  |  |  |  |  | 1890 nM | 492 nM
6 | CCN(CC)CCNC(=O)c1c(C)[nH]c(/C=C2\C(=O)Nc3ccc(F)cc32)c1C | 0.118 | 0 | 0 | 1.81 | 0 | 0 | 0 | 0.199 | 0 | 0 | 0.383 | 0 | 0 | 0 | 0 |  | > 1000 nM | > 1000 nM | 276 nM | > 1000 nM | > 1000 nM | > 1000 nM | > 1000 nM |  | > 1000 nM | > 1000 nM | > 1000 nM | > 1000 nM | > 1000 nM | 
7 | CCC1(c2ccc(N)cc2)CCC(=O)NC1=O (stereo not given) [Aminoglutethimide] | 0 | 0 | 0 | 0.6 | 0 | 0 | 5.49 | 0 | 0 | 0 | 0.781 | 0 | 0 | 0 | 0 | > 10000 nM | > 10000 nM | > 10000 nM |  | > 10000 nM | > 10000 nM | > 10000 nM | > 10000 nM |  | > 10000 nM | > 10000 nM |  | > 10000 nM |  | 
8 | CC(=O)O[C@H]1C(=O)[C@@]2(C)[C@H]([C@H](OC(=O)c3ccccc3)[C@]3(O)C[C@H](OC(=O)[C@H](O)[C@@H](NC(=O)c4ccccc4)c4ccccc4)C(C)=C1C3(C)C)[C@]1(OC(C)=O)CO[C@@H]1C[C@@H]2O [Paclitaxel] | 4.68 | 3.11 | 11.5 | 15.5 | 0 | 7.01 | 7.14 | 7.9 | 7.33 | 13 | 1.38 | 0 | 0 | 6.96 | 0 | 32.3 nM |  | 8.49 nM | 5.9 nM | > 1000 nM |  | 10.9 nM | 5.91 nM |  | > 1000 nM | > 1000 nM |  | > 1000 nM | 16.9 nM | 
